Source: patent US20160095837A1, “MODULATION OF MITOCHONDRIAL CALCIUM UNIPORTER ACTIVITY FOR TREATING AND PREVENTING ARRHYTHMIAS” (priority 2014, published 2016)

Tested on: SERCA2a activity ([Ca2+]cyto decline)
Assay: Cytoplasmic Ca2+ transient decay (Fura-2 AM) in SAN cells
Assay type: cell-based, mouse
Conditions: Ru360 dialysis
Protocol: SAN cells were placed in Tyrode's solution at 36±0.5° C. and were identified by their characteristic morphology (spindle or spider shape) and spontaneous activity. SAN cells were identified electrophysiologically by spontaneous action potentials with a slow depolarizing phase 4 and the hyperpolarization-activated current (If).^27 Spontaneous action potentials, If and ICa were recorded using the perforated (amphotericin B or β-escin in studies requiring dialysis of Ru360 and/or ATP) patch-clamp technique^28 on single SAN cells at 36±0.5° C. in Tyrode's solution. Intracellular Ca^2+ transients were recorded from single SAN cells using Fura-2 AM excited at 340 nm and 380 nm and emitted and 510 nm. Endogenous NADH from single SAN cells was measured by excitation at 350 nm and recording emitted light at 460 nm.^29 Mitochondrial Ca^2+ was measured at 535 nm from mt-pericam expressing SAN cells exited at 415 nm^20. Mitochondrial Ca^2+ entry was measured in cell membrane permeabilized cardiomyocytes isolated from DN-MCU transgenic, wild type mice and from HEK293 cells using Calcium green-5N^30.
Cytosolic Ca^2+ levels were recorded from Fura-2-loaded cells, excited at wavelengths of 340 and 380 nm, and imaged with a 510 nm long-pass filter. Single isolated SAN cells were loaded with 0.1 μM Fura-2 AM for 20 minutes, and then perfused for 20 minutes to de-esterfy the Fura-2 AM in normal Tyrode's solution. After placement on a recording chamber, the cells were perfused in normal Tyrode's solution at 36° C.±0.5. Spindle-shaped, spontaneously beating cells were chosen for experiments. Action potential recording was performed simultaneously.

## (μ)[(HCO2)(NH3)4Ru]2OCl3) [Ru360]
ISO stimulated
  Decline in [Ca2+]cyto after ISO: slowed
No ISO
  Decline in [Ca2+]cyto in the absence of ISO stimulation: did not slow
